This note sets out measurements from patent US9789181B2, “PAN-DR binding polypeptides and uses thereof” (Epimmune Inc., priority 2009, dated 2017).

Where no end group is shown, it is not given here.

In one data set the target is purified HLA DRB4 *0101 (Homo sapiens, UniProt P01903+P13762, G164S). The data set can be described thus: IC50nM to purified HLA | DRB4 *0101. As for the experimental part: (§1) Table printed on a drawing sheet, FIG. 1
Head of the field: IC50nM to purified HLA | DRB4 *0101
(§2) First copying reader's note: The comma is the decimal sign and the point a thousands separator (e.g. 21.831); some values are printed bold or italic and some SEQ ID NOs underlined, with no legend on the sheet.
Where the first naming reader finds the target: head: IC50nM to purified HLA | DRB4 *0101

Another data set addresses purified HLA DRB1 *0101 (Homo sapiens, UniProt P01903+P01911, A100R/D57E/F55L/F60I/F76Y/I96L/L162R/M171V/P40L/Q125E/R42F/V115G/Y59C). Kind of data set: IC50nM to purified HLA | DRB1 *0101. As for the experimental part:
as §1
Head of the field: IC50nM to purified HLA | DRB1 *0101
as §2
Where the first naming reader finds the target: head: IC50nM to purified HLA | DRB1 *0101

Another data set addresses purified HLA DRB1 *0405 (Homo sapiens, UniProt P01903+P01911, A100R/A169T/D86S/F76Y/I96L/K127E/L162R/M171V/N62H/P40V/Q125Y/R42H/S133A/S149N/S66Y/V115G/V209L/W38E). Kind of data set: IC50nM to purified HLA | DRB1 *0405. How it is done: as §1
Head of the field: IC50nM to purified HLA | DRB1 *0405
as §2
Where the first naming reader finds the target: head: IC50nM to purified HLA | DRB1 *0405

The target of a further data set is purified HLA DRB1 *0701 (Homo sapiens, UniProt P01903+P01911, A100R/A102G/A103Q/D57E/D86V/E43K/F76Y/K127E/L162R/M171V/P40G/Q125H/Q99D/R33Q/R42Y/R54Q/S133A/S66F/T210M/V115G/Y107V/Y59L/Y89S). Kind of data set: IC50nM to purified HLA | DRB1 *0701. How it is done:
as §1
Head of the field: IC50nM to purified HLA | DRB1 *0701
as §2
Where the first naming reader finds the target: head: IC50nM to purified HLA | DRB1 *0701

The target in the next data set is purified HLA DRB1 *0401 (Homo sapiens, UniProt P01903+P01911, A100K/A169T/F76Y/I96L/K127E/L162R/M171V/N62H/P40V/Q125Y/R42H/S133A/S149N/S66Y/V115G/V209L/W38E). The data set can be described thus: IC50nM to purified HLA | DRB1 *0401. How it is done:
as §1
Head of the field: IC50nM to purified HLA | DRB1 *0401
as §2
Where the first naming reader finds the target: head: IC50nM to purified HLA | DRB1 *0401

Another data set addresses purified HLA DRB1 *0301 (Homo sapiens, UniProt P01903+P01911, A100K/A102G/A103R/A169T/F55Y/I96L/K41T/L162R/M171V/P40S/Q125H/Q178H/Q39Y/R42S/S66N/T106N/T262R/W38E/Y61H). The data set can be described thus: IC50nM to purified HLA | DRB1 *0301. As for the experimental part:
as §1
Head of the field: IC50nM to purified HLA | DRB1 *0301
as §2
Where the first naming reader finds the target: head: IC50nM to purified HLA | DRB1 *0301

Data set [1] has as its system crude extract from E. coli. The data set can be described thus: In situ protease assay: TNFα variants in E. coli crude extract, SDS-PAGE and Western blot. The class given is in vitro ADME. Particulars: for protease resistance of TNF variants (proteolytic cleavage inside the PADRE analogue sequence): E. coli crude extract, immunoblot, data not shown. As for the experimental part: In order to test the protease resistance of selected, good binding PADRE analogues, their sequences were inserted by cloning techniques into a loop (loop EF) in human TNFα. Cell-free protein crude extract from E. coli expressing the modified TNFα molecules was prepared and proteolytic cleavage within the PADRE analogue sequences was analysed by SDS-PAGE followed by immunoblotting.
A synthetic cDNA encoding TNF (Y87S) was used as template. Oligonucleotides encoding PADRE or PADRE analogues were inserted into the template between A185 and E186 by PCR (cf. above). Resulting cDNAs were cloned into pET28b+(Novagen) and transformed into E. coli strain HMS 174. For recombinant expression, the resulting E. coli strains were cultured in fermentors in a defined medium at 37° C. Induction of recombinant expression was initiated by the addition of 1 mM of IPTG and temperature was lowered to 25° C. Cultures were harvested at 4, 8 or 24 h post-IPTG induction. TNFα variants were purified to >90% homogeneity by affinity chromatography using a TNFα specific monoclonal antibody as described in Nielsen et al., (2004), J Biol. Chem. 279:33593-33600. The purified TNFα variants were characterized by MALDI-TOF mass spectrometry to verify their identity and integrity.
In Situ Protease Assay: Analysis of the Protease Resistance of TNF-α Variants Using Western Blot
Aliquots (1 ml) of E. coli cell cultures, expressing the various TNF-α variants to be tested, were centrifuged (5000 g/5 min/5° C.) and the culture medium was discarded. Cell pellets were resuspended in 1 ml of 20 mM Bis-Tris, pH 6.0. Cell disruption was achieved by sonication (4×15 sec at an amplitude of 11 μm with 20 sec pauses between each sonication round). The resulting suspensions were centrifuged (20000 g/30 min/8° C.) and the supernatants (crude extracts) were transferred to fresh tubes. Crude extracts were then analysed for protein content using a Bradford protein assay (Biorad). Equivalent amounts of proteins were loaded onto 4-12% NuPAGE gels (Novex). After SDS-PAGE, proteins were transferred onto nitrocellulose membrane by semi-dry blotting. For immunoreaction, incubation with rabbit TNFα antiserum (1 h; dilution 1:10 000) and with horse radish peroxidase-conjugated secondary antibody (Dako P448) were carried out in Tris 50 mM, NaCl 150 mM, EDTA 5 mM, Igepal 0.1%, gelatine 0.5%. Detection was with ECL™ reagents (GE Healthcare).

The next data set has as its target purified HLA DRB1 *0404 (Homo sapiens, UniProt P01903+P01911, A100R/A169T/F76Y/I96L/K127E/L162R/M171V/N62H/P40V/Q125Y/R42H/S133A/S149N/S66Y/V209L/W38E). The data set can be described thus: IC50nM to purified HLA | DRB1 *0404. As for the experimental part:
as §1
Head of the field: IC50nM to purified HLA | DRB1 *0404
as §2
Where the first naming reader finds the target: head: IC50nM to purified HLA | DRB1 *0404

The target of another data set is purified HLA DRB1 *0802 (Homo sapiens, UniProt P01903+P01911, A100R/A103L/A169T/F76Y/H45Y/I96F/K41T/L162R/M171V/P40S/Q125H/Q178H/Q39Y/Q99D/R218S/R42G/S66Y/V115G/W38E). The data set can be described thus: IC50nM to purified HLA | DRB1 *0802. How it is done:
as §1
Head of the field: IC50nM to purified HLA | DRB1 *0802
as §2
Where the first naming reader finds the target: head: IC50nM to purified HLA | DRB1 *0802

Sequence of purified HLA DRB1 *0301 (P01903 26-254 limits assumed, other chains not shown): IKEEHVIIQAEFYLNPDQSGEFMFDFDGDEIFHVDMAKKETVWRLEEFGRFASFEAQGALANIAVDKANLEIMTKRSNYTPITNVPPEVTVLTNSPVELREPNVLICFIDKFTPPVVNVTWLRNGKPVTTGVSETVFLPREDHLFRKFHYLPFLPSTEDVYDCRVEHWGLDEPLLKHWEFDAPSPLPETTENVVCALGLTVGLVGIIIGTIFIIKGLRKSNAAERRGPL
Sequence of purified HLA DRB4 *0101 (P01903 26-254 limits assumed): as the sequence (P01903 26-254 limits assumed, other chains not shown) above
Sequence of purified HLA DRB4 *0101 (P13762 whole entry G164S): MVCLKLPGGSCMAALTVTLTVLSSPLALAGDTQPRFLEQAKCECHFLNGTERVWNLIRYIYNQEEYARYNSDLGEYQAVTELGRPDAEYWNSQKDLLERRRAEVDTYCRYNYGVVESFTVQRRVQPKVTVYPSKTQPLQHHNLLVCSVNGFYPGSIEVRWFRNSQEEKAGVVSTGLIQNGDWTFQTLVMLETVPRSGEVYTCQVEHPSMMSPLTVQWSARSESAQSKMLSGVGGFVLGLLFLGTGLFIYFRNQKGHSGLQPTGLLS

With AAAYFVAAFTLHAAA [SEQ ID NO: 23], the IC50 – broadly, the point on the concentration scale where inhibition reaches its midpoint – amounted to 81 nM against purified HLA DRB4 *0101; 3.4 nM against purified HLA DRB1 *0101; 4.4 nM at purified HLA DRB1 *0405; 78 nM against purified HLA DRB1 *0701; 1 nM on purified HLA DRB1 *0401; 126 nM against purified HLA DRB1 *0301. The IC50 on purified HLA DRB1 *0404 came out at 0.67 nM; against purified HLA DRB1 *0802, 5.9 nM. For the same molecule, in data set [1] (sequence inserted into loop EF of human TNFα, procedure of Example 2), the “protease resistance of PADRE analogue sequence” value was “increased resistance towards proteolytic degradation”.

B1: SEQ ID NO: 78: TNFα (Y87S) variant with the 12 C-terminal residues of SEQ ID NO: 23 inserted (protein)
chain: MVRSSSRTPSDKPVAHVVANPQAEGQLQWLNRRANALLANGVELRDNQLVVPSEGLYLIYSQVLFKGQGCPSTHVLLTHTISRIAVSSQTKVNLLSAIKSPCQRETPEGAYFVAAFTLHAAAEAKPWYEPIYLGGVFQLEKGDRLSAEINRPDYLDFAESGQVYFGIIAL
modifications: Synthetic TNF variant incorporating pan-DR binding peptide
Turning to B1, the “protease resistance of TNF variants (proteolytic cleavage inside the PADRE analogue sequence)” value in data set [1] is listed as “protease resistant”.

B2: SEQ ID NO: 79: TNFα (Y87S) variant with the 12 C-terminal residues of SEQ ID NO: 29 inserted (protein)
chain: MVRSSSRTPSDKPVAHVVANPQAEGQLQWLNRRANALLANGVELRDNQLVVPSEGLYLIYSQVLFKGQGCPSTHVLLTHTISRIAVSSQTKVNLLSAIKSPCQRETPEGAHFVAANTLHAAAEAKPWYEPIYLGGVFQLEKGDRLSAEINRPDYLDFAESGQVYFGIIAL
modifications: Synthetic TNF variant incorporating pan-DR binding peptide
As to B2, the “protease resistance of TNF variants (proteolytic cleavage inside the PADRE analogue sequence)” value in [1] is on record as “protease resistant”.

B3: SEQ ID NO: 84: TNFα (Y87S) variant with the 12 C-terminal residues of SEQ ID NO: 69 inserted (protein)
chain: MVRSSSRTPSDKPVAHVVANPQAEGQLQWLNRRANALLANGVELRDNQLVVPSEGLYLIYSQVLFKGQGCPSTHVLLTHTISRIAVSSQTKVNLLSAIKSPCQRETPEGAIFVAAWTLHAAAEAKPWYEPIYLGGVFQLEKGDRLSAEINRPDYLDFAESGQVYFGIIAL
modifications: Synthetic TNF variant incorporating pan-DR binding peptide
Regarding B3, the “protease resistance of TNF variants (proteolytic cleavage inside the PADRE analogue sequence)” value in data set [1] is listed as “protease resistant”.
